Laboratory results as given in paper PMC2645942 (Journal of medicinal chemistry, 2008).

How the values were obtained:
[1] = biological target: αβγF77C (α1β2γ2F77C GABAA receptor) (Rattus norvegicus, UniProt P18508+P62813, F115C/INS375LLRMFSFK); assay: Radioligand binding, αβγF77C mutant
[2] = biological target: αY209Cβγ (α1Y209Cβ2γ2 GABAA receptor) (Rattus norvegicus, UniProt P18508+P62813, INS375LLRMFSFK/Y236C); assay: Radioligand binding, αY209Cβγ mutant
[3] = biological target: αD97Cβγ (α1D97Cβ2γ2 GABAA receptor) (Rattus norvegicus, UniProt P18508+P62813, D124C/INS375LLRMFSFK); assay: Radioligand binding, αD97Cβγ mutant

Measured: specific binding of radioligand

CCOC(=O)c1ncn2c1CN(C)C(=O)c1cc(F)ccc1-2 [Ro15-1788, ethyl 8-fluoro-5,6-dihydro-5-methyl-6-oxo-4H-imidazo[1,5-a][1,4]benzodiazepine-3-carboxylate]
not measurable: all assays above

CN1C(=O)CN=C(c2ccccc2F)c2cc([N+](=O)[O-])ccc21 [flunitrazepam]
not measurable: all assays above
